The test system of data set [1] is Human immunodeficiency virus 1. The experiment in a line: Antiviral activity against human immunodeficiency virus type 1 by using MAGI assay. Format: functional, organism-based. To be noted: Human immunodeficiency virus 1, MAGI.
Data set [2] is described as follows: Toxicity towards CEM cells determined by standard MTT assay, expressed as concentration required for the survival of 50% cells. To be noted: human, CEM cells (CCRF-CEM cell line); read-out: TC50 (the source's name). The data set is classed as cell-based.
For data set [3], the system named is Human immunodeficiency virus 1. The experiment in a line: Antiviral activity against human immunodeficiency virus type 1 by using MAGI assay; NR = not reached. Format: functional, organism-based.

We go through 18 compounds from ChEMBL document CHEMBL1140355, “New HIV-1 replication inhibitors of the styryquinoline class bearing aroyl/acyl groups at the C-7 position: synthesis and biological activity” (Bioorg Med Chem Lett, 2005).

Usually IC50 stands for the concentration that inhibits the measured activity by half. High values mean weaker potency in that assay, low ones greater potency in that assay.

`O=C(O)c1ccc(C(=O)c2ccc3ccc(/C=C/c4ccc(O)c(O)c4)nc3c2O)cc1` had an IC50 in data set [1] of 40 µM. For the same compound, in data set [2], the CC50 worked out at 80 µM.

`O=C(c1ccc2ccc(/C=C/c3ccc(O)c(O)c3)nc2c1O)c1cccc2ccccc12`: in data set [3], the half-inhibitory concentration (IC50) entry is listed as “Not reached”. In addition, the CC50 in data set [2] was determined as 1 µM.

On to `O=C(c1ccccc1)c1ccc2ccc(/C=C/c3ccc(O)c(O)c3)nc2c1O`, for which the IC50 entry in data set [3] is “Not reached”. Further, in data set [2], the CC50 was 3 µM.

In data set [1], `O=C(c1ccc([N+](=O)[O-])cc1)c1ccc2ccc(/C=C/c3ccc(O)c(O)c3)nc2c1O` displayed an IC50 of 2 µM. The CC50 in data set [2] was determined as 60 µM.

In turn, `Cc1cc(C(=O)c2ccc3ccc(/C=C/c4ccc(O)c(O)c4)nc3c2O)ccc1[N+](=O)[O-]` yielded an IC50 in data set [1] of 60 µM. In addition, the CC50 in data set [2] was determined as 90 µM.

The compound `O=C(O)c1cccc(C(=O)c2ccc3ccc(/C=C/c4ccc(O)c(O)c4)nc3c2O)c1` yielded an IC50 in data set [1] of 63 µM. Besides, the CC50 in data set [2] is greater than 100 µM.

`O=C(CCc1ccccc1)c1ccc2ccc(/C=C/c3ccc(O)c(O)c3)nc2c1O` came in with an IC50 in data set [1] of 2 µM. Further, in data set [2], the CC50 stood at 7 µM.

The compound `O=C(c1cccnc1)c1ccc2ccc(/C=C/c3ccc(O)c(O)c3)nc2c1O` showed a half-maximal inhibitory concentration (IC50) in data set [1] of 2 µM. Further, in data set [2], the CC50 was greater than 100 µM.

As for `O=C(c1ccncc1)c1ccc2ccc(/C=C/c3ccc(O)c(O)c3)nc2c1O`, the IC50 result in data set [3] was “Not reached”. The CC50 in data set [2] was determined as 4 µM.

Consider `O=C(c1ccc(O)cc1)c1ccc2ccc(/C=C/c3ccc(O)c(O)c3)nc2c1O`, for which the IC50 in data set [1] is 6 µM. The CC50 in data set [2] was 87 µM.

`O=C(c1ccccc1[N+](=O)[O-])c1ccc2ccc(/C=C/c3ccc(O)c(O)c3)nc2c1O`: the IC50 in data set [1] was 4 µM. Besides, the CC50 in data set [2] is 70 µM.

Turning to `O=C(c1ccc(F)c(F)c1)c1ccc2ccc(/C=C/c3ccc(O)c(O)c3)nc2c1O`, the IC50 in data set [1] was determined as 4 µM. Further, in data set [2], the CC50 was 63 µM.

Turning to `O=C(c1cccc([N+](=O)[O-])c1)c1ccc2ccc(/C=C/c3ccc(O)c(O)c3)nc2c1O`, in data set [1], the IC50 was determined as 0.5 µM. The CC50 in data set [2] is 1.5 µM.

As for `O=C(c1ccccc1O)c1ccc2ccc(/C=C/c3ccc(O)c(O)c3)nc2c1O`, in data set [3], the IC50 entry is reported as “Not reached”. Besides, in data set [2], the CC50 came to 1 µM.

The compound `CCCCCCCCC(=O)c1ccc2ccc(/C=C/c3ccc(O)c(O)c3)nc2c1O` registered an IC50 in data set [1] of 5 µM. In addition, the CC50 in data set [2] came out at 10 µM.

Take `O=C(O)c1ccc2ccc(/C=C/c3ccc(O)c(O)c3)nc2c1O`: the CC50 in data set [2] is greater than 100 µM.

Compound `O=C(O)c1ccccc1C(=O)c1ccc2ccc(/C=C/c3ccc(O)c(O)c3)nc2c1O` gave a half-maximal inhibitory concentration (IC50) in data set [1] of 35 µM. For the same compound, the CC50 in data set [2] is greater than 100 µM.

In the case of `O=C(c1ccccn1)c1ccc2ccc(/C=C/c3ccc(O)c(O)c3)nc2c1O`, in data set [3], the IC50 entry is reported as “Not reached”. Besides, the CC50 in data set [2] worked out at 15 µM.
